Experiments:
[1] = tested on: stratum corneum moisture content of the skin (forearm); experiment: Evaluation test of moisture retention effect upon single application (esterified products, oils, glycerol applied neat); format: in vivo, human
Description: In the present invention, the moisture retention effect of the esterified product, namely the improvement effect on the moisture retention function of the skin, was evaluated based on the change in the stratum corneum moisture content of the skin before and after application of the esterified product. Measurement of the stratum corneum moisture content was performed using a stratum corneum moisture content measuring device (device name: SKICON-200), manufactured by IBS Co., Ltd. This stratum corneum moisture content measuring device is a device that is widely used for measuring the moisturestate of the stratum corneum, and is a device that measures the electrical conductivity (μS) of the stratum corneum. The larger the skin moisture content, the higher the electrical conductivity of the stratum corneum becomes. Accordingly, the electrical conductivity (μS) measured using the stratum corneum moisture content measuring device was deemed to indicate the stratum corneum moisture content. The skin moisture retention effect of each test sample was evaluated by applying the test sample directly to washed skin, and then measuring the change in the skin stratum corneum moisture content after wiping the test sample off the skin using a cotton swab soaked in hexane. The skin stratum corneum moisture content measurement test was conducted on a plurality of panelists in the season from autumn to spring when the skin is prone to dryness. Further, in order to remove the effects of room temperature and humidity on the measurement results, the tests were performed in a room in which the room temperature had been adjusted to 18 to 22° C. and the humidity had been adjusted to 40 to 55% RH. Specifically, first, the forearm of the person was washed with soap, and the person was then held for 30 minutes in a room in which the room temperature and the humidity had been controlled within the above ranges to acclimatize the skin of the forearm to the measurement environment, thus completing preparations for the initial conditions for measurement. […] Subsequently, 40 μL of the test sample being evaluated was applied uniformly to the square measurement region of the forearm. Sixty minutes after the application, a cotton swab that had been immersed in hexane was used to wipe off the test sample, and 30 minutes after the test sample had been wiped off, the stratum corneum moisture content of the wiped region of the skin (the stratum corneum moisture content upon test completion) was measured. Further, when evaluating the moisture retention effect of the test sample, in order to consider and subtract the change in the state of the skin during the measurement period, the stratum corneum moisture content of a portion of the skin to which the sample had not been applied was also measured prior to test commencement and upon test completion, and the change in the stratum corneum moisture content of this uncoated portion was calculated. A moisture retention effect value (μS) was determined from the measured values for the skin stratum corneum moisture content based on the formulas below. The moisture retention effect value (μS) for each test sample was calculated as the average value for the moisture retention effect values (μS) across five panelists. […] Based on the moisture retention effect value (μS) for each test sample, the moisture retention effect of each test sample was evaluated using the criteria in Table 43. […] Using various commercially available oils and glycerol, the <Evaluation of moisture retention upon single application> described above was conducted to ascertain the moisture retention effect. […] The glycerol of Comparative Example 21 is a typical aqueous moisturizer, and is widely used as a moisturizer. […] With the exception of changing the removal solvent from hexane to water, the evaluation conditions were the same as those described above in the <Evaluation of moisture retention upon single application>.

[2] = tested on: stratum corneum moisture content of the skin (forearm); experiment: as above; format: in vivo, human; conditions: 60 minutes after application, glycerol still applied to the skin surface, prior to removal using water
[3] = esterified product applied neat, 40 μL on 3 cm x 3 cm forearm region, wiped off with hexane after 60 minutes, measured 30 minutes later, average of five panelists
[4] = esterified product applied neat, 40 μL on forearm, wiped off with hexane after 60 minutes, measured 30 minutes later, five panelists
[5] = single application of commercially available oil or glycerol to skin, measured after removal (hexane swab; water swab for glycerol)
[6] = single application of commercially available oil or glycerol, class from moisture retention effect value

For “caprylate ester of ditrimethylolpropane [Example 2]”, the “Moisture retention effect value” [1, 3] was 87 μS and the “Moisture retention evaluation result” value [1, 4] was “a1 (70 or greater)”.
OCC(O)CO [Comparative Example 21, glycerol] was tested, and the “Moisture retention effect value” ([1]; removal after 60 minutes with cotton swab immersed in water rather than hexane, measured 30 minutes later) was 8 μS, the “Moisture retention effect value” [1, 5] was 8 μS and the “Moisture retention evaluation result” value [1, 6] was “e1 (less than 40)”. For the same compound, the “increase in the electrical conductivity that corresponds with the moisture retention effect value” [2] was 477 μS.
In the case of CC(C)CCCCCCCCCCCCCCC(=O)OCC(C)C [Comparative Example 9, isobutyl isostearate], the “Moisture retention effect value” [1, 3] is reported as 47 μS.
“caprate ester of ditrimethylolpropane [Example 3]” was tested, and the “Moisture retention effect value” [1, 3] was 70 μS and the “Moisture retention evaluation result” value [1, 4] was “a1 (70 or greater)”.
With CCCCC(CC)C(=O)OCC(COC(=O)C(CC)CCCC)OC(=O)C(CC)CCCC (centres unmarked) [Comparative Example 14, glyceryl tri(2-ethylhexanoate)] the “Moisture retention effect value” [1, 5] was 32 μS and the “Moisture retention evaluation result” value [1, 6] was “e1 (less than 40)”.

From US11752077B2, “Oily moisturizer and topical skin composition containing same” (The Nisshin OilliO Group, Ltd., priority 2017, dated 2023)
